Source: patent US10040804B2, “Compounds targeting proteins, compositions, methods, and uses thereof” (BioTheryX, Inc., priority 2016, dated 2018)

Key:
IL-1β = IL-1β expression in LPS stimulated PBMCs (Meso Scale); assay type: cell-based, human; conditions: Homo sapiens, PBMC; for inhibition at 10 µM: compound concentration 10 μM
Outline: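 Human PBMCs (200,000 cells/well in RPMI-1640/10% FBS) were pretreated with compound for 1 h, then stimulated with 100 ng/mL LPS for 18-24 h. IL-1β in supernatant was measured by Meso Scale assay. Activity is expressed as percentage of LPS-induced level, with DMSO-treated wells as negative control.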

Molm-13 cells = assay: Molm-13 cell viability (CellTiter-Glo); assay type: cell-based; conditions: Homo sapiens, MOLM-13, read-out: % Inhibition (MOLM-13 Cell Viability); for cytotoxicity at 10 µM: compound concentration 10 μM; for cytotoxicity at 2.8 µM: compound concentration 2.8 μM
Outline: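 Molm-13 (RPMI-1640, 10% FBS) and H1048 (DMEM:F12, 5% FBS with supplements) plated at 20,000 cells/well, treated with compound or 0.1% DMSO for 3 days at 37° C., 5% CO2. Viability read by CellTiter-Glo luminescence after 10 min.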

TNF-α = TNF-α expression in LPS stimulated PBMCs (Meso Scale); assay type: cell-based, human; conditions: Homo sapiens, PBMC; for inhibition at 10 µM: compound concentration 10 μM
Outline: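 Thawed primary human PBMCs, 200,000 cells/well in RPMI-1640/10% FBS, pretreated with compound 1 h, then stimulated with 100 ng/mL LPS for 18-24 h. Supernatant TNF-α measured by Meso Scale assay; activity expressed as percentage of LPS-induced level, DMSO as negative control.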

IL-6 = IL-6 expression in LPS stimulated PBMCs (Meso Scale); assay type: cell-based, human; conditions: Homo sapiens, PBMC, LPS-stimulated PBMCs; for inhibition at 10 µM: compound concentration 10 μM
Outline: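 Thawed human PBMCs at 200,000 cells/well in RPMI-1640/10% FBS were pretreated with compound or DMSO for 1 h, then stimulated with 100 ng/mL LPS for 18–24 h. Supernatant IL-6 was measured by Meso Scale assay and expressed as % of LPS-induced activity.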

IL-2 = assay: anti-CD3-induced IL-2 secretion in PBMCs; assay type: cell-based; conditions: Homo sapiens, PBMC, anti-CD3 stimulated PBMCs, 24 h, DMSO = 1.0, read-out: Fold Change IL-2; for fold induction at 10 µM: compound concentration 10 μM
Description: FIGS. 4 and 9D are graphs showing anti-CD3-induced IL-2 secretion in PBMCs. 1 ug/mL anti-CD3 (OKT-3) antibody in PBS were coated onto 96-well plates overnight at 4° C. Approximately 550,000 PBMCs were added to each well, followed by addition of DMSO only, Compound 1-8 at 10 μM (FIG. 4) or Compound 9 at 0.1 μM or 1 μM (FIG. 9D), or 10 μM lenalidomide (rev). Induction was measured after 24 h as fold difference from the DMSO stimulated control.
For the IL-2 analysis, 96 well plates were precoated with 1 ug/mL anti-human CD3 antibody (OKT3, eBioscience Inc.). After washing with PBS, compounds were added to the wells (50 μL/well) followed by PBMCs diluted at 3-4 million cells/mL (150 μL/well). Plates were incubated for 24 h and the supernatants collected for Mesoscale IL-2 analysis.
Compound activity was measured as fold difference from the DMSO control. IL-1-beta activity is shown in FIG. 1; IL-6 activity is shown in FIG. 2; TNF-α activity is shown in FIG. 3; and IL-2 activity is shown in FIG. 4.

SMILES | inhibition at 10 µM (IL-1β) | cytotoxicity at 10 µM (Molm-13 cells) | inhibition at 10 µM (TNF-α) | inhibition at 10 µM (IL-6) | fold induction at 10 µM (IL-2) | cytotoxicity at 6 µM (Molm-13 cells; compound concentration 6 μM) | cytotoxicity at 2.8 µM (Molm-13 cells) | inhibition at 1 µM (IL-1β; compound concentration 1 μM) | cytotoxicity at 0.2 µM (Molm-13 cells; compound concentration 0.2 μM) | inhibition at 1 µM (TNF-α; compound concentration 1 μM) | inhibition at 1 µM (IL-6; compound concentration 1 μM) | fold induction at 1 µM (IL-2; compound concentration 1 μM)
Cc1scc2c1CN([C@H]1CC(=O)NC1=O)C2=O [Compound 20, (S)-3-(1-Methyl-4-oxo-4H-thieno[3,4-c]pyrrol-5(6H)-yl) pyrrolidine-2,5-dione] | 50% | 19% | 58% | 19% | 2.2 |  |  |  |  |  |  | 
O=C1CCC(N2Cc3sccc3C2=O)C(=O)N1 (centres unmarked) [Compound 21, 3-(4-Oxo-4H-thieno[2,3-c]pyrrol-5(6H)-yl)piperidine-2,6-dione] | 74% | 16% | 74% | 73% | 2.9 |  |  |  |  |  |  | 
O=C1CCC(N2C(=O)c3scc(C4CCCC4)c3C2=O)C(=O)N1 (centres unmarked) [Compound 22, 3-Cyclopentyl-5-(2,6-dioxopiperidin-3-yl)-4H-thieno[2,3-c]pyrrole-4,6(5H)-dione] | 0% | 23% | 26% | 16% | 0.8 |  |  |  |  |  |  | 
O=C1CCC(N2Cc3c(csc3C(F)F)C2=O)C(=O)N1 (centres unmarked) [Compound 23, 3-(1-(Difluoromethyl)-4-oxo-4H-thieno[3,4-c]pyrrol-5(6H)-yl)piperidine-2,6-dione] | 69% | 34% | 82% | 45% | 2 |  |  |  |  |  |  | 
O=C1CCC[C@H](N2Cc3c(C4CCCC4)csc3C2=O)C(=O)N1 [Compound 24, (S)-3-(3-Cyclopentyl-6-oxo-4H-thieno[2,3-c]pyrrol-5(6H)-yl)azepane-2,7-dione] | 11% | 26% | 23% | 6% | 0.7 |  |  |  |  |  |  | 
Cc1sc(Cl)c2c1CN([C@H]1CCCC(=O)NC1=O)C2=O [Compound 25, (S)-3-(3-Chloro-1-methyl-4-oxo-4H-thieno[3,4-c]pyrrol-5(6H)-yl)azepane-2,7-dione] | 45% | 20% | 41% | 22% | 1.3 |  |  |  |  |  |  | 
O=C1CCC(N2C(=O)c3cc(C4CCCC4)sc3C2=O)C(=O)N1 (centres unmarked) [Compound 26, 2-Cyclopentyl-5-(2,6-dioxopiperidin-3-yl)-4H-thieno[2,3-c]pyrrole-4,6(5H)-dione] | 2% | 0% | 31% | 14% | 0.9 |  |  |  |  |  |  | 
O=C1CCC(N2C(=O)c3csc(C4CCCC4)c3C2=O)C(=O)N1 (centres unmarked) [Compound 27, 1-Cyclopentyl-5-(2,6-dioxopiperidin-3-yl)-4H-thieno[3,4-c]pyrrole-4,6(5H)-dione] | 21% | 0% | 22% | 3% | 0.8 |  |  |  |  |  |  | 
Cc1scc2c1CN([C@H]1CCCCNC1=O)C2=O [Compound 28, (S)-1-Methyl-5-(2-oxoazepan-3-yl)-5,6-dihydro-4H-thieno[3,4-c]pyrrol-4-one] | 0% | 0% | 0% | 9% | 0.9 |  |  |  |  |  |  | 
Cc1cnc(Nc2ccc(OCCCNCC(=O)NCc3scc4c3CN([C@H]3CCCC(=O)NC3=O)C4=O)cc2)nc1Nc1cccc(S(=O)(=O)NC(C)(C)C)c1 [Compound 58, (S)-2-((3-(4-((4-((3-(N-(tert-Butyl)sulfamoyl)phenyl)amino)-5-methylpyrimidin-2-yl)amino)phenoxy)propyl)amino)-N-((5-(2,7-dioxoazepan-3-yl)-4-oxo-5,6-dihydro-4H-thieno[3,4-c]pyrrol-1-yl)methyl)acetamide] | 82% |  | 92% | 53% | 1.9 | 50% |  |  |  |  |  | 
Cc1cnc(Nc2ccc(OCCCNCC(=O)NCc3scc4c3CN(C3CCC(=O)NC3=O)C4=O)cc2)nc1Nc1cccc(S(=O)(=O)NC(C)(C)C)c1 (centres unmarked) [Compound 59, 2-((3-(4-((4-((3-(N-(tert-Butyl)sulfamoyl)phenyl)amino)-5-methylpyrimidin-2-yl)amino)phenoxy)propyl)amino)-N-((5-(2,6-dioxopiperidin-3-yl)-4-oxo-5,6-dihydro-4H-thieno[3,4-c]pyrrol-1-yl)methyl)acetamide] | 45% |  | 81% | 10% | 1.8 |  | 50% |  |  |  |  | 
Cc1sc2c(c1C)C(c1ccc(Cl)cc1)=N[C@@H](CC(=O)NCCCCNCC(=O)NCc1scc3c1CN(C1CCC(=O)NC1=O)C3=O)c1nnc(C)n1-2 (stereo partly drawn) [Compound 60, 2-((S)-4-(4-Chlorophenyl)-2,3,9-trimethyl-6H-thieno[3,2-f][1,2,4]triazolo[4,3-a][1,4]diazepin-6-yl)-N-(4-((2-(((5-(2,6-dioxopiperidin-3-yl)-4-oxo-5,6-dihydro-4H-thieno[3,4-c]pyrrol-1-yl)methyl)amino)-2-oxoethyl)amino)butyl)acetamide] |  |  |  |  |  |  |  | 91% | 50% | 93% | 95% | 0.2
Cc1cnc(Nc2ccc(OCCCNC(=O)NCc3scc4c3CN([C@H]3CCCC(=O)NC3=O)C4=O)cc2)nc1Nc1cccc(S(=O)(=O)NC(C)(C)C)c1 [Compound 61, (S)—N-(tert-Butyl)-3-((2-((4-(3-(3-((5-(2,7-dioxoazepan-3-yl)-4-oxo-5,6-dihydro-4H-thieno[3,4-c]pyrrol-1-yl)methyl)ureido)propoxy)phenyl)amino)-5-methylpyrimidin-4-yl)amino)benzenesulfonamide] | 53% |  | 66% | 11% | 0.8 |  | 50% |  |  |  |  | 
